Data from patent US20060147936A1, “Use of a gene mutation in the human gnas gene for predicting risks of diseases, courses of the disease and for predicting the response to disease therapies” (priority 2003, published 2006).

What was measured:
[1] = placebo-controlled, double blind study of sibutramine in obese patients: loss of weight after one year; assay type: in vivo, human; conditions: 15 mg/day for one year
Experimental: (§1) In the context of a placebo-controlled, double blind study, obese patients were given 15 mg sibutramine/day for one year. Sibutramine is a centrally active re-uptake inhibitor of noradrenaline and serotonin, both of which act through G protein-coupled receptors. Sibutramine (trade-name: Reductil, Meridia) enhances the feeling of satiety and makes it easier to lose weight in the context of structured measures to reduce weight (increase in physical activity, reduction in calorie intake). The outcome parameter of the study was the weight loss after one year.
The placebo or sibutramine (15 mg/day) were administered for one year. The loss of weight after one year (%) is illustrated, in dependence on the GNAS T393C genotype.
In addition, the study population was genotyped with respect to the GNAS G(-1211)A polymorphism (FIG. 19B). […] Placebo or sibutramine (15 mg/day) was administered for one year. The loss of weight (%) after one year is illustrated in dependence on the GNAS G(1211)A genotype. In the placebo group, patients with GNAS (-1211) GG genotype clearly could lose weight better(7.3%) than those with the AA- and AG genotype (1.8 and 3.1%, respectively). […] Thus therapy with sibutramine is predominantly indicated for patients with AG/AA genotype, whereas patients with CC genotype can also lose weight well under placebo. The time courses of the loss of weight for each genotype of the 393CT393C polymorphism (sibutramine versus placebo) are shown in FIGS. 20A, 20B and 20C. FIGS. 20 A, B and C illustrate the individual time courses for the changes in weight with placebo or sibutramine for the GNAS 393 CC genotype (A), the TC genotype (B) and the TT genotype (C). It is evident that only the TC and TT genotypes benefit from therapy with 15 mg sibutramine daily, whereas CC genotypes can lose weight without drug.

[2] = cardiovascular side-effects (heart rate, blood pressure) under therapy with sibutramine versus placebo; assay type: in vivo, human
Experimental: as §1
The connection between gene modifications in the GNAS gene and the change in heart rate was examined after treatment with sibutramine versus placebo (FIG. 25). The effects are illustrated as they depend on the T393C polymorphism. […] FIG. 26 makes clear the possible use of a gene modification in the human GNAS gene to predict the increase in diastolic blood pressure during treatment with sibutramine.
FIG. 27 illustrates once again the possible use of a gene modification in the human GNAS gene to predict an increase in the heart rate during therapy with sibutramine. This illustrates the effects, in dependence on genotypes of the G(-1211)A polymorphism. […] Finally, FIG. 28 illustrates the possibility of an additional use of a gene modification in the human GNAS gene in the prediction of an increase in systolic blood pressure during therapy with sibutramine.

[3] = metformin therapy for 12 months in women with PCOS: HOMA-IR index and BMI; assay type: in vivo, human; conditions: metformin 12 months
Experimental: Polycystic ovarian syndrome (PCOS) is a frequent endocrine disease, characterized by chronic anovulation and hyperandrogenism. About 5% of all premenopausal women are affected by this. […] Treatment of PCOS patients with metformin improves fertility and androgen levels, reduces insulin resistance and facilitates weight reduction. For this purpose, women with the PCOS syndrome were treated with metformin for 12 months. Changes in the Body Mass Index (BMI) and insulin resistance according to the HOMA-IR method (homeostasis model assessment for insulin resistance) were investigated, together with the GNAS genotypes of the T393C polymorphism. FIG. 22A shoes the influence of therapy with an oral antidiabetic(metformin) on insulin resistance(A) and Body Mass Index (BMI; B) in women with polycystic ovaries. As already mentioned, therapy was carried out with metformin for 12 months. The change in the HOMA-IR index is given as a measure of the insulin resistance. It is evident that the most marked improvement of the HOMA-IR index is in individuals with the CC genotype(2.9), in contrast to 2.2 with the TC genotype and only 0.9 with the TT genotype. […] The changes in the BMI (a measure of body fat) behave similarly. […] This includes not only metformin, but also the so-called glitazones, tolbutamide, sulfonylureas and their derivatives, glinides and arcabose.

human fat cells = test: isoprenaline-stimulated lipolysis (glycerol release) in human fat cells ex vivo; assay type: cell-based; conditions: compared with other genotypes
From the text: For this purpose, human fat cells ex vivo were stimulated with isoprenaline and lipolysis quantified on the basis of glycerol release (Hauner H et al. Effects of the G protein beta3 subunit 825T allele on adipogenesis and lipolysis in cultured human preadipocytes and adipocytes. Horm Metab Res. 2002;34(9):475-80). […] This agrees with the observation of increased expression of Gαs protein in this genotype.
In fat cells from humans with the GG genotype, there is increased lipolysis, measured as the release of glycerol. […] This also agrees with the observation that persons with the GG genotype on a low calorie diet lose more weight than persons with the AA/AG genotype.

Q: Which results are given for `CC(C)CC(N(C)C)C1(c2ccc(Cl)cc2)CCC1` (stereo not shown) [sibutramine]?
A: loss of weight after one year, sibutramine vs placebo ([1]; GNAS G(-1211)A AG and AA genotype): marked (p=0.027) increase in the loss of weight; loss of weight after one year, sibutramine vs placebo ([1]; GNAS G(-1211)A GG genotype): favorable drug effect was not observed; loss of weight after one year, sibutramine vs placebo ([1]; GNAS T393C CC genotype): favorable drug effect was not observed; loss of weight after one year, sibutramine vs placebo ([1]; GNAS T393C TC and TT genotype): clear (p=0.027) increase in the loss of weight; change in diastolic blood pressure during therapy with sibutramine ([2]; GNAS 393 CC and TC genotypes): does not occur; change in diastolic blood pressure during therapy with sibutramine ([2]; GNAS 393 TT genotype): significant increase; change in systolic blood pressure under therapy with sibutramine ([2]; GNAS -1211 GG genotype): lack of reduction of the systolic blood pressure; change in heart rate (sibutramine versus placebo) ([2]; GNAS G(-1211)A GG genotype compared with AA/AG genotypes): significantly greater change in heart rate; increase in heart rate with sibutramine versus placebo ([2]; GNAS T393C CC genotype): This effect does not occur; increase in heart rate with sibutramine versus placebo ([2]; GNAS T393C TC genotype): 10 beats per minute; increase in heart rate with sibutramine versus placebo ([2]; GNAS T393C TT genotype): 20 beats per minute

Q: For `CN(C)C(=N)N=C(N)N` [metformin], which “decrease in the BMI” value ([3]; GNAS T393C CC genotype) is on record?
A: 15.8%

Q: What about the “improvement of the HOMA-IR index (insulin resistance)” value (“improvement of the HOMA-IR index” for short) ([3]; GNAS T393C CC genotype) of the same compound?
A: 2.9

Q: And the “decrease in the BMI” value ([3]; GNAS T393C TC genotype)?
A: 4.8%

Q: What about the “improvement of the HOMA-IR index” value ([3]; GNAS T393C TC genotype) of the same compound?
A: 2.2

Q: And the “decrease in the BMI” value ([3]; GNAS T393C TT genotype)?
A: 1.5%

Q: What about the “improvement of the HOMA-IR index” value ([3]; GNAS T393C TT genotype) of the same compound?
A: 0.9

Q: Which “stimulation of lipolysis (glycerol release)” value (human fat cells; fat cells from humans with GNAS G(-1211)A GG genotype) does the source give for `CC(C)NCC(O)c1ccc(O)c(O)c1` (stereo not shown) [isoprenaline] here?
A: most marked stimulation of lipolysis

Q: And the “stimulation of lipolysis (glycerol release)” value (human fat cells; fat cells from individuals with GNAS 393 TT genotype)?
A: most marked stimulation of lipolysis
